# Patent US12421240B2, “Hydropyrazino[1,2-d][1,4]diazepine compounds for the treatment of autoimmune disease” (Hoffmann-La Roche Inc., priority 2019, dated 2025)
# pIC50: −log10 of the molar value.
# Molecular target: T1, human TLR8 (Homo sapiens, UniProt Q9NR97)
# T1 sequence (Q9NR97 27-1041): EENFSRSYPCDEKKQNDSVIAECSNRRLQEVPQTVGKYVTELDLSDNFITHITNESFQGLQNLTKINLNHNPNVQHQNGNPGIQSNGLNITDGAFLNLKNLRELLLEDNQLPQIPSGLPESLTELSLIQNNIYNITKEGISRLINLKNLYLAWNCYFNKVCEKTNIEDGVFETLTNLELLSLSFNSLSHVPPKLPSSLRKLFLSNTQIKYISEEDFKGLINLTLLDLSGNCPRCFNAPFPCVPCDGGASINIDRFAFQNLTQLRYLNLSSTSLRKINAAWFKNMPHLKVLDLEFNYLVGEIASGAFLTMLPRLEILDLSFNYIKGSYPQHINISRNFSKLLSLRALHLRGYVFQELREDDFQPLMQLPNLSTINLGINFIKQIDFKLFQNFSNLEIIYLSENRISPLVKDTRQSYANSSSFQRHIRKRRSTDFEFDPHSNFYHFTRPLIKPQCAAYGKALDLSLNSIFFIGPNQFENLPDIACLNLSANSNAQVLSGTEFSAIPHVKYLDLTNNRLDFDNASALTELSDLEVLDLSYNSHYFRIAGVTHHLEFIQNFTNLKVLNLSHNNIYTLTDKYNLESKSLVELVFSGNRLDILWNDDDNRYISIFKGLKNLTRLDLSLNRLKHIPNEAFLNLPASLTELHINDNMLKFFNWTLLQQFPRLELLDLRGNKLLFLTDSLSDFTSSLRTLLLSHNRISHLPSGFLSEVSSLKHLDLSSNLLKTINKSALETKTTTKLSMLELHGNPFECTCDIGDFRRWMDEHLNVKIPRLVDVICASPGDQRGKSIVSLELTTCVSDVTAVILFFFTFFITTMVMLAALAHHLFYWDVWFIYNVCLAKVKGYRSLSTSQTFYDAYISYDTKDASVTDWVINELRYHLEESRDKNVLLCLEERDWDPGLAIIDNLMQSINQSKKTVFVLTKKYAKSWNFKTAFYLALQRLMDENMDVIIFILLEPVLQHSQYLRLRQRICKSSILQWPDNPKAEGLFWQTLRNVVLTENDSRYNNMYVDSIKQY
# Assay: HEK293-Blue-hTLR-8 cells assay (SEAP reporter, R848 stimulation)
# Type: cell-based
# Conditions: HEK293-Blue-hTLR8 cells, R848 ligand, 20 hrs; read-out: HEK/hTLR8 IC50
# Method: The following tests were carried out in order to determine the activity of the compounds of formula (I), (Ia) or (Ib) in HEK293-Blue-hTLR-7/8/9 cells assay.
# HEK293-Blue-hTLR-8 Cells Assay:
# A stable HEK293-Blue-hTLR-8 cell line was purchased from InvivoGen (Cat. #: hkb-htlr8, San Diego, California, USA). These cells were originally designed for studying the stimulation of human TLR8 by monitoring the activation of NF-κB. A SEAP (secreted embryonic alkaline phosphatase) reporter gene was placed under the control of the IFN-β minimal promoter fused to five NF-κB and AP-1-binding sites. The SEAP was induced by activating NF-κB and AP-1 via stimulating HEK-Blue hTLR8 cells with TLR8 ligands. Therefore the reporter expression was declined by TLR8 antagonist under the stimulation of a ligand, such as R848, for incubation of 20 hrs. The cell culture supernatant SEAP reporter activity was determined using QUANTI-Blue™ kit (Cat. #: rep-qb1, Invivogen, San Diego, Ca., USA) at a wavelength of 640 nm, a detection medium that turns purple or blue in the presence of alkaline phosphatase.
# HEK293-Blue-hTLR8 cells were incubated at a density of 250,000˜450,000 cells/mL in a volume of 170 μL in a 96-well plate in Dulbecco's Modified Eagle's medium (DMEM) containing 4.5 g/L glucose, 50 U/mL penicillin, […], […], 2 mM L-glutamine, 10% (v/v) heat-inactivated fetal bovine serum with addition of 20 μL test compound in a serial dilution in the presence of final DMSO at 1% and 10 μL of 60 uM R848 in above DMEM, perform incubation under 37° C. in a CO2 incubator for 20 hrs. Then 20 μL of the supernatant from each well was incubated with 180 μL Quanti-blue substrate solution at 37° C. for 2 hrs and the absorbance was read at 620-655 nm using a spectrophotometer. The signaling pathway that TLR8 activation leads to downstream NF-κB activation has been widely accepted, and therefore similar reporter assay was modified for evaluating TLR8 antagonist.
row,Compound,pIC50
1,"C[C@@H]1CN(c2ccc(C#N)c3ncccc23)C[C@@H]2CCN(c3ccc(N4CCNCC4)nc3)CCN21 [Example 1, 5-[(4R,10aS)-4-methyl-8-(6-piperazin-1-yl-3-pyridyl)-1,3,4,6,7,9,10,10a-octahydropyrazino [1,2-d][1,4]diazepin-2-yl]quinoline-8-carbonitrile]",7.21
2,"C[C@@H]1CN(c2ccc(C#N)c3ncccc23)C[C@@H]2CCN(c3cnc(N4CCNCC4)nc3)CCN21 [Example 2, 5-[(4R,10aS)-4-methyl-8-(2-piperazin-1-ylpyrimidin-5-yl)-1,3,4,6,7,9,10,10a-octahydropyrazino[1,2-d][1,4]diazepin-2-yl]quinoline-8-carbonitrile]",7.60
3,"C[C@@H]1CN(c2ccc(C#N)c3ncccc23)C[C@@H]2CCN(c3ccc([C@H]4CNCCO4)cc3)CCN21 [Example 3, 5-[(4R,10aS)-4-methyl-8-[4-[(2S)-morpholin-2-yl]phenyl]-1,3,4,6,7,9,10,10a-octahydropyrazino[1,2-d][1,4]diazepin-2-yl]quinoline-8-carbonitrile]",8.32
4,"C[C@@H]1CN(c2ccc(C#N)c3ncccc23)C[C@@H]2CCN(c3ccc4c(n3)CNCC4)CCN21 [Example 5, 5-[(4R,10aS)-4-methyl-8-(5,6,7,8-tetrahydro-1,7-naphthyridin-2-yl)-1,3,4,6,7,9,10,10a-octahydropyrazino[1,2-d][1,4]diazepin-2-yl]quinoline-8-carbonitrile]",8.41
5,"C[C@@H]1CN(c2ccc(C#N)c3ncccc23)C[C@@H]2CCN(Cc3ncc(N4CCNCC4)cn3)CCN21 [Example 13, 5-[(4R,10aS)-4-methyl-8-[(5-piperazin-1-ylpyrimidin-2-yl)methyl]-1,3,4,6,7,9,10,10a-octahydropyrazino[1,2-d][1,4]diazepin-2-yl]quinoline-8-carbonitrile]",7.50
6,"C[C@@H]1CN(c2ccc(C#N)c3ncccc23)C[C@@H]2CCN(Cc3cnc(N4CCNCC4)nc3)CCN21 [Example 14, 5-[(4R,10aS)-4-methyl-8-[(2-piperazin-1-ylpyrimidin-5-yl)methyl]-1,3,4,6,7,9,10,10a-octahydropyrazino[1,2-d][1,4]diazepin-2-yl]quinoline-8-carbonitrile]",8.31
7,"C[C@@H]1CN(c2ccc(C#N)c3ncccc23)C[C@@H]2CCN(Cc3cncc(N4CCNCC4)c3)CCN21 [Example 16, 5-[(4R,10aS)-4-methyl-8-[(5-piperazin-1-yl-3-pyridyl)methyl]-1,3,4,6,7,9,10,10a-octahydropyrazino[1,2-d][1,4]diazepin-2-yl]quinoline-8-carbonitrile]",7.92
8,"C[C@@H]1CN(c2ccc(C#N)c3ncccc23)C[C@@H]2CCN(Cc3ccc(N4CCNCC4)nc3)CCN21 [Example 17, 5-[(4R,10aS)-4-methyl-8-[(6-piperazin-1-yl-3-pyridyl)methyl]-1,3,4,6,7,9,10,10a-octahydropyrazino[1,2-d][1,4]diazepin-2-yl]quinoline-8-carbonitrile]",8.47
9,"C[C@@H]1CN(c2ccc(C#N)c3ncccc23)C[C@@H]2CCN(Cc3cccc(N4CCNCC4)n3)CCN21 [Example 18, 5-[(4R,10aS)-4-methyl-8-[(6-piperazin-1-yl-2-pyridyl)methyl]-1,3,4,6,7,9,10,10a-octahydropyrazino[1,2-d][1,4]diazepin-2-yl]quinoline-8-carbonitrile]",8.09

# Next, values leading:
row,pIC50,Compound
1,8.62,"C[C@@H]1CN(c2ccc(C#N)c3ncccc23)C[C@@H]2CCN(c3cncc4c3CCNC4)CCN21 [Example 4, 5-[(4R,10aS)-4-methyl-8-(5,6,7,8-tetrahydro-2,7-naphthyridin-4-yl)-1,3,4,6,7,9,10,10a-octahydropyrazino[1,2-d][1,4]diazepin-2-yl]quinoline-8-carbonitrile]"
2,> 8.49,"C[C@@H]1CN(c2ccc(C#N)c3ncccc23)C[C@@H]2CCN(c3ccc4c(n3)CCNC4)CCN21 [Example 6, 5-[(4R,10aS)-4-methyl-8-(5,6,7,8-tetrahydro-1,6-naphthyridin-2-yl)-1,3,4,6,7,9,10,10a-octahydropyrazino[1,2-d][1,4]diazepin-2-yl]quinoline-8-carbonitrile]"
3,8.82,"C[C@@H]1CN(c2ccc(C#N)c3ncccc23)C[C@@H]2CCN(c3cc4c(cn3)CNCC4)CCN21 [Example 7, 5-[(4R,10aS)-4-methyl-8-(5,6,7,8-tetrahydro-2,7-naphthyridin-3-yl)-1,3,4,6,7,9,10,10a-octahydropyrazino[1,2-d][1,4]diazepin-2-yl]quinoline-8-carbonitrile]"
4,8.07,"C[C@@H]1CN(c2ccc(C#N)c3ncccc23)C[C@@H]2CCN(Cc3cc4c(cn3)CNCC4)CCN21 [Example 8, 5-[(4R,10aS)-4-methyl-8-(5,6,7,8-tetrahydro-2,7-naphthyridin-3-ylmethyl)-1,3,4,6,7,9,10,10a-octahydropyrazino[1,2-d][1,4]diazepin-2-yl]quinoline-8-carbonitrile]"
5,8.19,"C[C@@H]1CN(c2ccc(C#N)c3ncccc23)C[C@@H]2CCN(Cc3cc4c(cn3)CCNC4)CCN21 [Example 9, 5-[(4R,10aS)-4-methyl-8-(5,6,7,8-tetrahydro-2,6-naphthyridin-3-ylmethyl)-1,3,4,6,7,9,10,10a-octahydropyrazino[1,2-d][1,4]diazepin-2-yl]quinoline-8-carbonitrile]"
6,8.28,"C[C@@H]1CN(c2ccc(C#N)c3ncccc23)C[C@@H]2CCN(Cc3cnc4c(c3)CNCC4)CCN21 [Example 10, 5-[(4R,10aS)-4-methyl-8-(5,6,7,8-tetrahydro-1,6-naphthyridin-3-ylmethyl)-1,3,4,6,7,9,10,10a-octahydropyrazino[1,2-d][1,4]diazepin-2-yl]quinoline-8-carbonitrile]"
7,8.38,"C[C@@H]1CN(c2ccc(C#N)c3ncccc23)C[C@@H]2CCN(Cc3ccc4c(c3)CCNC4)CCN21 [Example 11, 5-[(4R,10aS)-4-methyl-8-(1,2,3,4-tetrahydroisoquinolin-6-ylmethyl)-1,3,4,6,7,9,10,10a-octahydropyrazino[1,2-d][1,4]diazepin-2-yl]quinoline-8-carbonitrile]"
8,8.57,"C[C@@H]1CN(c2ccc(C#N)c3ncccc23)C[C@@H]2CCN(Cc3ccc4c(c3)CNCC4)CCN21 [Example 12, 5-[(4R,10aS)-4-methyl-8-(1,2,3,4-tetrahydroisoquinolin-7-ylmethyl)-1,3,4,6,7,9,10,10a-octahydropyrazino[1,2-d][1,4]diazepin-2-yl]quinoline-8-carbonitrile]"
9,8.07,"C[C@@H]1CN(c2ccc(C#N)c3ncccc23)C[C@@H]2CCN(Cc3cnc(N4CCNCC4)cn3)CCN21 [Example 15, 5-[(4R,10aS)-4-methyl-8-[(5-piperazin-1-ylpyrazin-2-yl)methyl]-1,3,4,6,7,9,10,10a-octahydropyrazino[1,2-d][1,4]diazepin-2-yl]quinoline-8-carbonitrile]"
10,7.99,"C[C@@H]1CN(c2ccc(C#N)c3ncccc23)C[C@@H]2CCN(Cc3ccc(N4CCNCC4)cn3)CCN21 [Example 19, 5-[(4R,10aS)-4-methyl-8-[(5-piperazin-1-yl-2-pyridyl)methyl]-1,3,4,6,7,9,10,10a-octahydropyrazino[1,2-d][1,4]diazepin-2-yl]quinoline-8-carbonitrile]"
